Key:
[1] = tested on: Clostridium perfringens; assay type: in vivo, chickens; conditions: inferred from FIG. 3 and common knowledge
[2] = tested on: Clostridium perfringens; conditions: general common knowledge in the art; cited from earlier work

Structure (SMILES): C[N+](C)(C)CC(=O)O [betaine]
- effectiveness against an infection of C. perfringens [1]: does not result in the Clostridium infection being effectively treated
- effectiveness against a C. perfringens challenge [2]: not effective
